Patent US11612606B2, “8-aminoisoquinoline compounds and uses thereof” (priority 2018, dated 2023)
Structures can show the parent of a compound that is named as a salt.

molecular target: HPK full length, T165E S171E (Homo sapiens (Human), UniProt Q92918, S171E/T165E); assay: HPK1-FL HTRF enzymatic assay ("HTRF"); format: biochemical; settings: ATP 1 mM, read-out: HPK1 Ki
Procedure, shortened: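 Full-length HPK1 (T165E/S171E) was preincubated 30 min with compound, then reacted 60 min with biotin-SLP-76 and 1 mM ATP. Phospho-SLP-76 was detected by HTRF (Eu-anti-pSLP76 antibody, SA-XL665) after a further 60 min.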

HPK full length, T165E S171E, sequence (Q92918 whole entry T165E/S171E, looked up): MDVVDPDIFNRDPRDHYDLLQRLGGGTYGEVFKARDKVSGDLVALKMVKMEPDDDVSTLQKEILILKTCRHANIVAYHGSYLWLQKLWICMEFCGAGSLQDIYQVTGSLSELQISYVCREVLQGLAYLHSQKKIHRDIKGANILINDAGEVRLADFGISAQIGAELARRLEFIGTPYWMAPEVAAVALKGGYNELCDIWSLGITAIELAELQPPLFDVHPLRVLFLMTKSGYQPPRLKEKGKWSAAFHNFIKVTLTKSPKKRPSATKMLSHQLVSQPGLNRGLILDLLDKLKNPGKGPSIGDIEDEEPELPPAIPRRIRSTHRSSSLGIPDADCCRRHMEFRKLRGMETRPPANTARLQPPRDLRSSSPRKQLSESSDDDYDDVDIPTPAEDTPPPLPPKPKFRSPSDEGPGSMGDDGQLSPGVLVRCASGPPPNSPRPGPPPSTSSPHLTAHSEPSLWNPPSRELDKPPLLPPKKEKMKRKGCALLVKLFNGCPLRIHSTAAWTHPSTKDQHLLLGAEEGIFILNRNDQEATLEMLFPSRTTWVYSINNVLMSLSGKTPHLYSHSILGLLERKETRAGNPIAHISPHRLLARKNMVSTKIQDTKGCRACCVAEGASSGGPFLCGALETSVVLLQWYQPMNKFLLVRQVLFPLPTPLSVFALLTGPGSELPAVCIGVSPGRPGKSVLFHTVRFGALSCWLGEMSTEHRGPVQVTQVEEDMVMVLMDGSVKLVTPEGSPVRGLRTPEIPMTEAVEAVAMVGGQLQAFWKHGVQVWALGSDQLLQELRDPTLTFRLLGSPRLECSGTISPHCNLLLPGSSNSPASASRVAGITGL

Row | SMILES | Ki
1 | Cc1c(-c2cc3cc(NC(=O)O[C@H]4CN(C)C[C@@H]4F)ncc3c(N)c2F)cnc2c1NCCO2 [Compound 452a, (3S,4S)-4-Fluoro-1-methylpyrrolidin-3-yl (8-amino-7-fluoro-6-(8-methyl-2,3-dihydro-1H-pyrido[2,3-b][1,4]oxazin-7-yl)isoquinolin-3-yl)carbamate] | 0.03 nM
2 | Cc1c(-c2cc3cc(NC(=O)O[C@H]4CN(C)C[C@H]4F)ncc3c(N)c2F)cnc2c1NCCO2 [Compound 452c, (3S,4R)-4-Fluoro-1-methylpyrrolidin-3-yl (8-amino-7-fluoro-6-(8-methyl-2,3-dihydro-1H-pyrido[2,3-b][1,4]oxazin-7-yl)isoquinolin-3-yl)carbamate] | 0.17 nM
3 | Cc1c(-c2cc3cc(NC(=O)OC4CN(C)CCN(C)C4)ncc3c(N)c2F)cnc2c1NCCO2 [Compound 465, 1,4-Dimethyl-1,4-diazepan-6-yl (8-amino-7-fluoro-6-(8-methyl-2,3-dihydro-1H-pyrido[2,3-b][1,4]oxazin-7-yl)isoquinolin-3-yl)carbamate] | 0.46 nM
4 | COCCN1CC(OC(=O)Nc2cc3cc(-c4cnc5c(c4C)NCCO5)c(F)c(N)c3cn2)C1 [Compound 474, 1-(2-Methoxyethyl)azetidin-3-yl (8-amino-7-fluoro-6-(8-methyl-2,3-dihydro-1H-pyrido[2,3-b][1,4]oxazin-7-yl)isoquinolin-3-yl)carbamate] | 0.06 nM
5 | Cc1c(-c2cc3cc(NC(=O)O[C@@H]4COC[C@H]4F)ncc3c(N)c2F)cnc2c1NCCO2 [Compound 477a, (3R,4R)-4-Fluorotetrahydrofuran-3-yl (8-amino-7-fluoro-6-(8-methyl-2,3-dihydro-1H-pyrido[2,3-b][1,4]oxazin-7-yl)isoquinolin-3-yl)carbamate] | 0.034 nM
6 | Cc1c(-c2cc3cc(NC(=O)O[C@H]4COC[C@H]4F)ncc3c(N)c2F)cnc2c1NCCO2 [Compound 477c, (3S,4R)-4-Fluorotetrahydrofuran-3-yl (8-amino-7-fluoro-6-(8-methyl-2,3-dihydro-1H-pyrido[2,3-b][1,4]oxazin-7-yl)isoquinolin-3-yl)carbamate] | 0.15 nM
7 | Cc1c(-c2cc3cc(NC(=O)O[C@H]4C[C@@H](C#N)C4)ncc3c(N)c2F)cnc2c1NCCC2 [Compound 483a, (1s,3s)-3-Cyanocyclobutyl (8-amino-7-fluoro-6-(4-methyl-5,6,7,8-tetrahydro-1,5-naphthyridin-3-yl)isoquinolin-3-yl)carbamate] | < 0.013 nM
8 | Cc1c(-c2cc3cc(NC(=O)O[C@H]4C[C@@H](C#N)C4)ncc3c(N)c2F)cnc2c1NCCO2 [Compound 484a, (1s,3s)-3-Cyanocyclobutyl (8-amino-7-fluoro-6-(8-methyl-2,3-dihydro-1H-pyrido[2,3-b][1,4]oxazin-7-yl)isoquinolin-3-yl)carbamate] | < 0.013 nM
9 | Cc1c(-c2cc3cc(NC(=O)O[C@H]4C[C@@H](O)C4)ncc3c(N)c2F)cnc2c1NCCO2 [Compound 485a, (1s,3s)-3-Hydroxycyclobutyl (8-amino-7-fluoro-6-(8-methyl-2,3-dihydro-1H-pyrido[2,3-b][1,4]oxazin-7-yl)isoquinolin-3-yl)carbamate] | < 0.013 nM
10 | Cc1c(-c2cc3cc(NC(=O)O[C@H]4C[C@H](O)C4)ncc3c(N)c2F)cnc2c1NCCO2 [Compound 485b, (1r,3r)-3-Hydroxycyclobutyl (8-amino-7-fluoro-6-(8-methyl-2,3-dihydro-1H-pyrido[2,3-b][1,4]oxazin-7-yl)isoquinolin-3-yl)carbamate] | < 0.013 nM
11 | Cc1c(-c2cc3cc(NC(=O)O[C@H]4C[C@](C)(O)C4)ncc3c(N)c2F)cnc2c1NCCO2 [Compound 486b, (1r,3r)-3-Hydroxy-3-methylcyclobutyl (8-amino-7-fluoro-6-(8-methyl-2,3-dihydro-1H-pyrido[2,3-b][1,4]oxazin-7-yl)isoquinolin-3-yl)carbamate] | 0.018 nM
12 | Cc1c(-c2cc3cc(NC(=O)OC4CCC4)ncc3c(N)c2F)cnc2c1NCCO2 [Compound 487, Cyclobutyl (8-amino-7-fluoro-6-(8-methyl-2,3-dihydro-1H-pyrido[2,3-b][1,4]oxazin-7-yl)isoquinolin-3-yl)carbamate] | < 0.013 nM
13 | CCC(=O)N1CC(OC(=O)Nc2cc3cc(-c4cnc5c(c4C)NCCC5)c(F)c(N)c3cn2)C1 [Compound 492, 1-Propionylazetidin-3-yl (8-amino-7-fluoro-6-(4-methyl-5,6,7,8-tetrahydro-1,5-naphthyridin-3-yl)isoquinolin-3-yl)carbamate] | 0.055 nM
14 | Cc1c(-c2cc3cc(NC(=O)OC4CN(S(C)(=O)=O)C4)ncc3c(N)c2F)cnc2c1NCCC2 [Compound 493, 1-(Methylsulfonyl)azetidin-3-yl (8-amino-7-fluoro-6-(4-methyl-5,6,7,8-tetrahydro-1,5-naphthyridin-3-yl)isoquinolin-3-yl)carbamate] | 0.064 nM
15 | Cc1c(-c2cc3cc(NC(=O)OC4CC5(C4)CN(CC(F)F)C5)ncc3c(N)c2F)cnc2c1NCCO2 [Compound 494, 2-(2,2-Difluoroethyl)-2-azaspiro[3.3]heptan-6-yl (8-amino-7-fluoro-6-(8-methyl-2,3-dihydro-1H-pyrido[2,3-b][1,4]oxazin-7-yl)isoquinolin-3-yl)carbamate] | < 0.013 nM
16 | Cc1c(-c2cc3cc(NC(=O)O[C@H]4[C@@H]5CN(C(C)C)C[C@@H]54)ncc3c(N)c2F)cnc2c1NCCO2 [Compound 499a, (1R,5S,6s)-3-Isopropyl-3-azabicyclo[3.1.0]hexan-6-yl (8-amino-7-fluoro-6-(8-methyl-2,3-dihydro-1H-pyrido[2,3-b][1,4]oxazin-7-yl)isoquinolin-3-yl)carbamate] | < 0.013 nM
17 | Cc1c(-c2cc3cc(NC(=O)O[C@H]4[C@@H]5CN(C6COC6)C[C@@H]54)ncc3c(N)c2F)cnc2c1NCCO2 [Compound 502a, (1R,5S,6s)-3-(Oxetan-3-yl)-3-azabicyclo[3.1.0]hexan-6-yl (8-amino-7-fluoro-6-(8-methyl-2,3-dihydro-1H-pyrido[2,3-b][1,4]oxazin-7-yl)isoquinolin-3-yl)carbamate] | < 0.013 nM
18 | CC[C@]1(O)C[C@H](OC(=O)Nc2cc3cc(-c4cnc5c(c4C)NCCO5)c(F)c(N)c3cn2)C1 [Compound 512a, (1s,3r)-3-Ethyl-3-hydroxycyclobutyl (8-amino-7-fluoro-6-(8-methyl-2,3-dihydro-1H-pyrido[2,3-b][1,4]oxazin-7-yl)isoquinolin-3-yl)carbamate] | 0.015 nM
19 | Cc1c(-c2cc3cc(NC(=O)O[C@H]4C[C@@H](N5CC(F)(F)C5)C4)ncc3c(N)c2F)cnc2c1NCCO2 [Compound 513a, (1s, 3s)-3-(3,3-Difluoroazetidin-1-yl)cyclobutyl (8-amino-7-fluoro-6-(8-methyl-2,3-dihydro-1H-pyrido[2,3-b][1,4]oxazin-7-yl)isoquinolin-3-yl)carbamate] | 0.022 nM
20 | Cc1c(-c2cc3cc(NC(=O)O[C@H]4C[C@H](n5ccnc5)C4)ncc3c(N)c2F)cnc2c1NCCO2 [Compound 514a, (1r,3r)-3-(1H-Imidazol-1-yl)cyclobutyl (8-amino-7-fluoro-6-(8-methyl-2,3-dihydro-1H-pyrido[2,3-b][1,4]oxazin-7-yl)isoquinolin-3-yl)carbamate hydrochloride] | < 0.013 nM

same assay, conditions: HPK1 Ki, ATP 1 mM

Row | SMILES | Ki
21 | Cc1c(-c2cc3cc(NC(=O)O[C@@H]4CN(C)C[C@H]4F)ncc3c(N)c2F)cnc2c1NCCO2 [Compound 452b, (3R,4R)-4-Fluoro-1-methylpyrrolidin-3-yl (8-amino-7-fluoro-6-(8-methyl-2,3-dihydro-1H-pyrido[2,3-b][1,4]oxazin-7-yl)isoquinolin-3-yl)carbamate] | 0.036 nM
